Test results from ChEMBL document CHEMBL1136345, “Heterocyclic ketones as inhibitors of histone deacetylase” (Bioorg Med Chem Lett, 2003).

System: not listed separately
Assay: Half-life was determined
Assay type: ADME
Conditions: human

For O=C(CCCCCCOc1cccc(-c2ccccc2)c1)c1ncco1, which half-life is on record?
Its half-life is 12.6 min.

For O=C(CCCCCCOc1ccc(-c2ccccc2)cc1)c1ncco1, which half-life is on record?
Its half-life is 10.8 min.

Biological target: Histone deacetylase
Assay: In vitro inhibition of Histone deacetylase in K 562 erythroleukemia cells.
Parameters: species or system Homo sapiens
Conditions: not given

Which IC50 does the source give for O=C(CCCCCCOc1ccc2ccccc2c1)c1ncco1 here?
The IC50 was 0.52 µM.

With O=C(CCCCCCOc1ccc(-c2ccccc2)cc1)C1=NCCO1 as the molecule, how does the IC50 read?
The IC50 was 1.8 µM.

Which IC50 does the source give for O=C(CCCCCCSc1ccc2ccccc2c1)c1ncco1 here?
The IC50 was 0.54 µM.

For O=C(CCCCCC(=O)c1ncco1)NCc1ccc(Cl)cc1, which IC50 is on record?
The IC50 was 6.4 µM.

Which IC50 does the source give for O=C(CCCCCCNc1ccc2ccccc2c1)c1ncco1 here?
Its IC50 is 0.43 µM.

For O=C(CCCCCC(=O)c1ncco1)Nc1cccc(-c2ccccc2)c1, which IC50 is on record?
The IC50 was 0.31 µM.

With O=C(CCCCCCC(=O)c1ncco1)Nc1ccc(Oc2ccccc2)cc1 as the molecule, how does the IC50 read?
Its IC50 is 0.58 µM.

With O=C(NCCCCCC(=O)c1ncco1)c1cc2ccccc2[nH]1 as the molecule, how does the IC50 read?
Its IC50 is 0.34 µM.

For O=C(CCCCC/C=C/c1ccc(-c2ccccc2)cc1)c1ncco1, which IC50 is on record?
Its IC50 is 0.99 µM.

With O=C(CCCCCCOc1cccc(-c2ccccc2)c1)c1ncco1 as the molecule, how does the IC50 read?
Its IC50 is 0.62 µM.

Which IC50 does the source give for O=C(CCCCCC(=O)c1ncco1)Nc1ccc(Cl)cc1 here?
Its IC50 is 1.5 µM.

With COc1ccc(-c2csc(NC(=O)CCCCCCC(=O)c3ncco3)n2)cc1 as the molecule, how does the IC50 read?
Its IC50 is 0.03 µM.

With O=C(CCCCCCOc1ccc(-c2ccccc2)cc1)c1ncco1 as the molecule, how does the IC50 read?
Its IC50 is 1.1 µM.

Which IC50 does the source give for O=C(CCCCCCOc1ccc(-c2ccccc2)cc1)c1nnn[nH]1 here?
The IC50 was 2 µM.

For O=C(CCCCCCC(=O)c1ncco1)Nc1cccc(-c2ccccc2)c1, which IC50 is on record?
The IC50 was 0.06 µM.

For O=C(NCCCCCCC(=O)c1ncco1)c1cc2ccccc2[nH]1, which IC50 is on record?
Its IC50 is 0.09 µM.

Which IC50 does the source give for O=C(CCCCCCC(=O)c1ncco1)Nc1ccc(Cl)cc1 here?
The IC50 was 0.32 µM.

Which IC50 does the source give for O=C(CCCCCCS(=O)(=O)c1ccc2ccccc2c1)c1ncco1 here?
The IC50 was 0.61 µM.

Biological target: Histone deacetylase
Parameters: species or system Homo sapiens
Conditions: not given

For CNC(=O)C(=O)CCCCCCOc1ccc(-c2ccccc2)cc1, which IC50 is on record?
The IC50 was 0.11 µM.

System: not listed separately
Assay: Anti-proliferative activity against MDA-435 cells mediated by HDAC inhibition
Assay type: functional, cell-based
Conditions: Homo sapiens, MDA435

Which IC50 does the source give for COc1ccc(-c2csc(NC(=O)CCCCCCC(=O)c3ncco3)n2)cc1 here?
Its IC50 is 2.3 µM.

Biological target: Histone deacetylase
Assay: Inhibitory activity against Histone deacetylase (HDAC) in K 562 erythroleukemia cells (Radioactivity based HDAC assay)
Parameters: species or system Homo sapiens
Conditions: not given

For OC(CCCCCCOc1cccc(-c2ccccc2)c1)c1ncco1 (centres undefined), which IC50 is on record?
Its IC50 is greater than 50 µM.

With O=C(CCCCCCOc1ccc(-c2ccccc2)cc1)c1ncc[nH]1 as the molecule, how does the IC50 read?
The IC50 was greater than 50 µM.

Which IC50 does the source give for O=C(CCCCCCOc1ccc(-c2ccccc2)cc1)c1nccs1 here?
Its IC50 is greater than 50 µM.

Which IC50 does the source give for O=C(CCCCCC(=O)c1ncco1)NNc1ccc(Cl)cc1 here?
Its IC50 is greater than 10 µM.

With O=C(c1ncco1)[C@@H]1C[C@H]1CCCCOc1ccc(Oc2ccccc2)cc1 as the molecule, how does the IC50 read?
The IC50 was greater than 50 µM.

Which IC50 does the source give for O=C(CCCCCCOc1ccc(-c2ccccc2)cc1)c1ccccn1 here?
The IC50 was greater than 50 µM.

With O=C(CCCCCCc1nnc(-c2ccc(-c3ccccc3)cc2)o1)c1ncco1 as the molecule, how does the IC50 read?
The IC50 was 0.25 µM.

For O=C(CCCCCCOc1ccc(-c2ccccc2)cc1)c1nc2ccccc2o1, which IC50 is on record?
Its IC50 is greater than 50 µM.

Which IC50 does the source give for O=C(CCCCCCC(=O)c1ncco1)NNC(=O)c1ccc(-c2ccccc2)cc1 here?
The IC50 was 1.83 µM.

For Cn1cncc1C(=O)CCCCCCOc1ccc(-c2ccccc2)cc1, which IC50 is on record?
Its IC50 is greater than 50 µM.

Which IC50 does the source give for Cn1ccnc1C(=O)CCCCCCOc1ccc(-c2ccccc2)cc1 here?
The IC50 was greater than 50 µM.

For O=C(CCCCCCOc1ccc(-c2ccccc2)cc1)c1nc2ncccc2o1, which IC50 is on record?
The IC50 was greater than 50 µM.
